Reference: patent US10231453B2, “5-substituted imidazole derivatives” (BAYER CROPSCIENCE AKTIENGESELLSCHAFT, priority 2015, dated 2019)
Read-outs that look alike come from different tables or passages of the source.

Legend:
Venturia inaequalis = assay: In vivo preventive Venturia test (apples), Example J; settings: 240 h, read-out: efficacy
Protocol: After the spray coating has dried on, the plants are inoculated with an aqueous conidia suspension of the causal agent of apple scab (Venturia inaequalis) and then remain for 1 day in an incubation cabinet at approximately 20° C. and a relative atmospheric humidity of 100%.
The plants are then placed in a greenhouse at approximately 21° C. and a relative atmospheric humidity of approximately 90%.
The test is evaluated 10 days after the inoculation.

Septoria tritici = assay: In vivo preventive test on Septoria tritici (leaf spot on wheat), Examples E, Q3 and R5; settings: Zymoseptoria tritici, 576 h, preventive spray, evaluated 24 days after inoculation
[1] = test system: Fusarium nivale (var. majus); assay: In vivo preventive Fusarium nivale (var. majus) test (wheat), Example O; settings: Microdochium nivale, 120 h, 500 ppm of active ingredient, preventive spray, evaluated 5 days after inoculation, read-out: efficacy
Text: After the spray coating has been dried, the plants are slightly injured by using a sandblast and afterwards they are sprayed with a conidia suspension of Fusarium nivale (var. majus).

Phakopsora pachyrhizi = assay: In vivo preventive Phakopsora test (soybeans), Example I; settings: 168 h, 100 ppm of active ingredient, preventive spray, evaluated 7 days after inoculation, read-out: efficacy
Uromyces appendiculatus = assay: In vivo preventive test on Uromyces appendiculatus (bean rust), Examples G and R7; settings: 264 h, preventive spray, evaluated 11 days after inoculation
[2] = test system: Blumeria graminis fsp. hordei; assay: In vivo preventive Blumeria test (barley), Example K; settings: 168 h, 500 ppm of active ingredient, preventive spray, evaluated 7 days after inoculation, read-out: efficacy
Text: After the spray coating has been dried, the plants are dusted with spores of Blumeria graminis fsp. hordei.

Leptosphaeria nodorum = assay: In vivo preventive Leptosphaeria nodorum test (wheat), Example N; settings: Parastagonospora nodorum, 192 h, 500 ppm of active ingredient, preventive spray, evaluated 8 days after inoculation, read-out: efficacy
Text: After the spray coating has been dried, the plants are sprayed with a spore suspension of Leptosphaeria nodorum.

Sphaerotheca fuliginea = assay: In vivo preventive test on Sphaerotheca fuliginea (powdery mildew on cucurbits), Examples F and R6; settings: Podosphaera fuliginea, 360 h, preventive spray, evaluated 15 days after inoculation
Pyricularia oryzae = assay: whole plant or invertebrate; type: in vivo; settings: 192 h, read-out: efficacy
Fusarium graminearum = assay: whole plant or invertebrate; type: in vivo; settings: in Hordeum vulgare, 120 h, read-out: efficacy
Botrytis cinerea = assay: In vivo preventive test on Botrytis cinerea (grey mould) on gherkin, Examples B, Q1 and R2; settings: Botrytis cinerea
Pyrenophora teres = assay: In vivo preventive test on Pyrenophora teres (net blotch on barley), Examples D, Q2 and R4; settings: Pyrenophora teres, 336 h
Alternaria solani = assay: In vivo preventive Alternaria test (tomatoes), Example H; settings: 72 h, 100 ppm of active ingredient, preventive spray, evaluated 3 days after inoculation, read-out: efficacy
[3] = Measurement of LogP values by HPLC on reversed phase columns (EEC directive 79/831 Annex V.A8); type: physicochemical; settings: method [a]: LC-UV, acidic range, 0.1% formic acid in water and acetonitrile as eluent; Table 1
Protocol: Measurement of Log P values was performed as outlined above.

Puccinia recondita = assay: In vivo preventive test on Puccinia recondita (brown rust on wheat), Examples C and R3; settings: Puccinia recondita, 264 h, preventive spray, evaluated 11 days after inoculation
Alternaria brassicae = assay: In vivo preventive test on Alternaria brassicae (leaf spot on radish), Examples A and R1; settings: Alternaria brassicae, 144 h
[4] = 500 ppm of active ingredient, wheat, read-out: efficacy
[5] = 500 ppm of active ingredient, bean, read-out: efficacy
[6] = 500 ppm of active ingredient, gherkin, read-out: efficacy
[7] = 500 ppm of active ingredient, preventive spray, evaluated 4 to 5 days after inoculation, read-out: efficacy
[8] = 500 ppm of active ingredient, preventive spray, evaluated 14 days after inoculation, read-out: efficacy
[9] = 500 ppm of active ingredient, preventive spray, evaluated 6 days after inoculation, read-out: efficacy

Row | Structure (SMILES) | pest or weed control at 100 ppm (Venturia inaequalis) | pest or weed control at 500 ppm (Septoria tritici; [4]) | pest or weed control at 500 ppm [1] | pest or weed control at 100 ppm (Phakopsora pachyrhizi) | pest or weed control at 500 ppm (Uromyces appendiculatus; [5]) | pest or weed control at 500 ppm [2] | pest or weed control at 500 ppm (Leptosphaeria nodorum) | pest or weed control at 500 ppm (Sphaerotheca fuliginea; [6]) | pest or weed control at 500 ppm (Pyricularia oryzae) | pest or weed control at 500 ppm (Fusarium graminearum) | pest or weed control at 500 ppm (Botrytis cinerea; [7]) | pest or weed control at 500 ppm (Pyrenophora teres; [8]) | pest or weed control at 100 ppm (Alternaria solani) | chromatographic logP [3] | pest or weed control at 500 ppm (Puccinia recondita; [4]) | pest or weed control at 500 ppm (Alternaria brassicae; [9]) | also measured
1 | OC(Cc1ccc(F)cc1Cl)(Cn1cncc1Cl)C1(Cl)CC1 (stereo not drawn) [Example I-08] | 90 to 100% | 90 to 100% | 90 to 100% | 90 to 100% | 90 to 100% | 90 to 100% | 90 to 100% | 90 to 100% | 70 to 79% | 70 to 79% | 90 to 100% | 80 to 89% | 90 to 100% | 2.47 | 90 to 100% |  | 
2 | OC(Cc1c(Cl)ccnc1Cl)(Cn1cncc1Cl)C1(Cl)CC1 (stereo not drawn) [Example I-11] |  | 90 to 100% | 80 to 89% |  | 90 to 100% |  | 80 to 89% | 90 to 100% | 80 to 89% |  |  | 80 to 89% |  | 2.02 | 80 to 89% |  | 
3 | OC(Cc1ccccc1F)(Cn1cncc1Cl)C1(Cl)CC1 (stereo not drawn) [Example I-32] | 90 to 100% | 90 to 100% | 80 to 89% | 90 to 100% | 90 to 100% | 90 to 100% | 80 to 89% | 90 to 100% |  | 70 to 79% | 90 to 100% | 80 to 89% | 90 to 100% | 2.07 | 90 to 100% | 90 to 100% | pest or weed control at 100 ppm (Septoria tritici; Example R5, wheat, 100 ppm, read-out: Efficacy in %): 71%; pest or weed control at 500 ppm (Septoria tritici; Example R5, wheat, 500 ppm, read-out: Efficacy in %): 100%; pest or weed control at 100 ppm (Uromyces appendiculatus; Example R7, bean, 100 ppm, read-out: Efficacy in %): 81%; pest or weed control at 500 ppm (Uromyces appendiculatus; Example R7, bean, 500 ppm, read-out: Efficacy in %): 100%; pest or weed control at 100 ppm (Alternaria brassicae; Example R1, rate of application 100 ppm, read-out: Efficacy in %): 50%; pest or weed control at 500 ppm (Alternaria brassicae; Example R1, rate of application 500 ppm, read-out: Efficacy in %): 92%; pest or weed control at 100 ppm (Sphaerotheca fuliginea; Example R6, gherkin, 100 ppm, read-out: Efficacy in %): 100%; pest or weed control at 500 ppm (Sphaerotheca fuliginea; Example R6, gherkin, 500 ppm, read-out: Efficacy in %): 100%; pest or weed control at 100 ppm (Botrytis cinerea; Example R2, rate of application 100 ppm, read-out: Efficacy in %): 99%; pest or weed control at 500 ppm (Botrytis cinerea; Example R2, rate of application 500 ppm, read-out: Efficacy in %): 100%; pest or weed control at 100 ppm (Pyrenophora teres; Example R4, rate of application 100 ppm, read-out: Efficacy in %): 78%; pest or weed control at 500 ppm (Pyrenophora teres; Example R4, rate of application 500 ppm, read-out: Efficacy in %): 89%; pest or weed control at 100 ppm (Puccinia recondita; Example R3, wheat, 100 ppm, read-out: Efficacy in %): 78%; pest or weed control at 500 ppm (Puccinia recondita; Example R3, wheat, 500 ppm, read-out: Efficacy in %): 94%
4 | OC(Cc1ccccc1F)(Cn1cncc1Br)C1(Cl)CC1 (stereo not drawn) [Example I-33] | 90 to 100% | 90 to 100% |  | 90 to 100% | 90 to 100% | 90 to 100% | 90 to 100% | 90 to 100% |  |  | 90 to 100% | 80 to 89% | 90 to 100% | 2.1 | 80 to 89% | 90 to 100% | 
5 | N#Cc1cncn1CC(O)(Cc1ccc(Br)cc1Cl)C1(Cl)CC1 (stereo not drawn) [Example I-41] |  | 90 to 100% | 80 to 89% |  | 90 to 100% | 90 to 100% | 70 to 79% | 90 to 100% |  | 90 to 100% |  |  |  | 3.52 | 90 to 100% |  | 
6 | N#Cc1cncn1CC(O)(Cc1ccc(Br)cc1F)C1(Cl)CC1 (stereo not drawn) [Example I-42] | 80 to 89% | 90 to 100% | 80 to 89% | 90 to 100% | 90 to 100% | 90 to 100% | 90 to 100% | 90 to 100% | 80 to 89% | 80 to 89% | 80 to 89% | 70 to 79% | 70 to 79% | 3.24 | 90 to 100% |  | 
